Experimental data published in patent US10125100B2, “Kinase inhibitors” (Respivert Limited, priority 2014, dated 2018).

Legend:
p38 MAPKα (MAPK14) = p38 MAPKα (MAPK14) (Homo sapiens (Human), UniProt Q16539); test: p38 MAPKα enzyme inhibition (Method 2), Z-LYTE FRET; assay type: biochemical
Description: (§1) The enzyme inhibitory activities of compounds disclosed herein are determined by FRET using synthetic peptides labelled with both donor and acceptor fluorophores (Z-LYTE, Invitrogen Ltd., Paisley, UK).
The following two assay variants can be used for determination of p38 MAPKα inhibition.
The inhibitory activities of test compounds against the p38 MAPKα isoform (MAPK14: Invitrogen) are evaluated indirectly by determining the level of activation/phosphorylation of the down-stream molecule, MAPKAP-K2. The p38 MAPKα protein (80 ng/mL, 2.5 μL) is mixed with the test compound (2.5 μL of either 4 μg/mL, 0.4 μg/mL, 0.04 μg/mL or 0.004 μg/mL) for 2 hr at RT. […] The mixture is incubated for 1 hr at RT. Development reagent (protease, 5 μL) is added for 1 hr prior to detection in a fluorescence microplate reader (Varioskan® Flash, ThermoFisher Scientific).
This method follows the same steps as Method 1 above, but utilises a higher concentration of the p38 MAPKα protein (2.5 μL of 200 ng/mL protein instead of 2.5 μL of 80 ng/mL protein) for mixing with the test compound (tested at either 1 μg/mL, 0.1 μg/mL, 0.01 μg/mL or 0.001 μg/mL).
(§2) In all cases, the site-specific protease cleaves non-phosphorylated peptide only and eliminates the FRET signal. Phosphorylation levels of each reaction are calculated using the ratio of coumarin emission (donor) over fluorescein emission (acceptor), for which high ratios indicate high phosphorylation and low ratios indicate low phosphorylation levels.

c-Src = c-Src (Homo sapiens (Human), UniProt P12931); test: c-Src enzyme inhibition, Z-LYTE FRET; assay type: biochemical
Sequence of c-Src (P12931 whole entry, looked up): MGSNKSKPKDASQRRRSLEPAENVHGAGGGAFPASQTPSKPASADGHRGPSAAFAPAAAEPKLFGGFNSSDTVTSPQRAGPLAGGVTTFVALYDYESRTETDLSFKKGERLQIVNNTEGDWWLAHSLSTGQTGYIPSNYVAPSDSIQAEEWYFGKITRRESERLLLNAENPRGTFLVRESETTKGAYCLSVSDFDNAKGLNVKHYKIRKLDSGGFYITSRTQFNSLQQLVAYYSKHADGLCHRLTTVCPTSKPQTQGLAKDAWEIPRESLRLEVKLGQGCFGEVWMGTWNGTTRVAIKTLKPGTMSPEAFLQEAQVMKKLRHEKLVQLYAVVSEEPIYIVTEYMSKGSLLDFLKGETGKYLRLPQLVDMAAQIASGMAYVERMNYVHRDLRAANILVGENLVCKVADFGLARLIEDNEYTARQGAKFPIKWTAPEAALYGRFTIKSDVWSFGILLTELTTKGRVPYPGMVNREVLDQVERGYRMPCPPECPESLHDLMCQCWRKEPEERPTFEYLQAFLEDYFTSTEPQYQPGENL
Description: as §1
(§3) The inhibitory activities of compounds of the invention against c-Src and Syk enzymes (Invitrogen), are evaluated in a similar fashion to that described hereinabove. The relevant enzyme (3000 ng/mL or 2000 ng/mL respectively, 2.5 μL) is incubated with the test compound (either 1 μg/mL, 0.1 μg/mL, 0.01 μg/mL, or 0.001 μg/mL, 2.5 μL each) for 2 hr at RT. The FRET peptides (8 μM, 2.5 μL), and appropriate ATP solutions (2.5 μL, 800 μM for c-Src, and 60 μM ATP for Syk) are then added to the enzymes/compound mixtures and the mixture incubated for 1 hr. Development reagent (protease, 5 μL) is added for 1 hr prior to detection in a fluorescence microplate reader (Varioskan® Flash, ThermoFisher Scientific).
as §2

Syk = Syk (Homo sapiens (Human), UniProt P43405); test: Syk enzyme inhibition, Z-LYTE FRET; assay type: biochemical
Description: as §1
as §3, with “The” for “The inhibitory activities of compounds of the invention against c-Src and Syk enzymes (Invitrogen), are evaluated in a similar fashion to that described hereinabove. The”
as §2

Jurkat cells = test: (r) Cell cytotoxicity assay; assay type: cell-based, human; conditions: 24 hours
In short: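 Viability read by flow cytometry as the fraction of propidium iodide-negative cells (7.5 μg/mL PI, 15 min), relative to 1.0% DMSO control. Beforehand, 1×10^5 Jurkat cells in RPMI/10% FBS were treated 24 h at 37° C., 5% CO2 with test compound at final 20, 5 or 1 μg/mL.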

Sequence of p38 MAPKα (MAPK14) (Q16539 whole entry): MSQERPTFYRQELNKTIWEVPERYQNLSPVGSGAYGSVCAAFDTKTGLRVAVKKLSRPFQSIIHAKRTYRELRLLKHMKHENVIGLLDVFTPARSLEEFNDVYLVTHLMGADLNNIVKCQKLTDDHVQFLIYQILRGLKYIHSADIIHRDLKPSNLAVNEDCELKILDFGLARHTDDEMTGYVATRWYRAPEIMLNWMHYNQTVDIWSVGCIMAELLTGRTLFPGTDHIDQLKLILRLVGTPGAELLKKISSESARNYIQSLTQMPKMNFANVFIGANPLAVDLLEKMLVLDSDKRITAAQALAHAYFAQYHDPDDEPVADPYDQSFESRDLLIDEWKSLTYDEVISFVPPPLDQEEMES

SMILES	IC50 (p38 MAPKα (MAPK14)) [nM]	IC50 (c-Src) [nM]	IC50 (Syk) [nM]	% Viability at 1 μg/mL (Jurkat cells) [%]	% Viability at 5 μg/mL (Jurkat cells) [%]	% Viability at 20 μg/mL (Jurkat cells) [%]
COc1cc(Nc2cc(Oc3ccc(NC(=O)Nc4cc(C(C)(C)C)cc(NS(C)(=O)=O)c4OC)c4ccccc34)ccn2)ccc1S(=O)(=O)CCOCCOCCO [Example 40, N-(5-(tert-Butyl)-3-(3-(4-((2-((4-((2-(2-(2-hydroxyethoxy)ethoxy)ethyl)sulfonyl)-3-methoxyphenyl)amino)pyridin-4-yl)oxy)naphthalen-1-yl)ureido)-2-methoxyphenyl)-methanesulfonamide]	162	195	400	89.6	73.6	67.1
COc1cc(Nc2cc(Oc3ccc(NC(=O)Nc4cc(C(C)(C)C)cc(NS(C)(=O)=O)c4OC)c4ccccc34)ccn2)ccc1C(=O)NC[C@H](O)[C@H](O)[C@H](O)CO [Example 42, 4-((4-((4-(3-(5-(tert-Butyl)-2-methoxy-3-(methylsulfonamido)phenyl)ureido)naphthalen-1-yl)oxy)pyridin-2-yl)amino)-2-methoxy-N-((2S,3S4R)-2,3,4,5-tetrahydroxypentyl)benzamide]	3	21	88	96.6	91.7	21.3
COc1cc(Nc2cc(Oc3ccc(NC(=O)Nc4cc(C(C)(C)C)cc(NS(C)(=O)=O)c4OC)c4ccccc34)ccn2)ccc1S(=O)(=O)CC(CO)(CO)CO [Example 45, N-(5-(tert-Butyl)-3-(3-(4-((2-((4-((3-hydroxy-2,2-bis(hydroxymethyl)propyl)sulfonyl)-3-methoxyphenyl)amino)pyridin-4-yl)oxy)naphthalen-1-yl)ureido)-2-methoxyphenyl)-methanesulfonamide]	36	40	108	97.7	93.7	9.8

Second part, led by results:

IC50 (p38 MAPKα (MAPK14)) [nM]	IC50 (c-Src) [nM]	IC50 (Syk) [nM]	SMILES	% Viability at 1 μg/mL (Jurkat cells) [%]	% Viability at 5 μg/mL (Jurkat cells) [%]	% Viability at 20 μg/mL (Jurkat cells) [%]
31	13	325	COc1cc(Nc2cc(Oc3ccc(NC(=O)Nc4cc(C(C)(C)C)cc(NC(=O)CO)c4OC)c4ccccc34)ccn2)ccc1C(=O)NCCN1CC[S+]([O-])CC1 [Example 41, 4-((4-((4-(3-(5-(tert-Butyl)-3-(2-hydroxyacetamido)-2-methoxyphenyl)ureido)naphthalen-1-yl)oxy)pyridin-2-yl)amino)-2-methoxy-N-(2-(1-oxidothiomorpholino)ethyl)benzamide]	90.5	67.3	55.3
29	20	55	COc1cc(Nc2cc(Oc3ccc(NC(=O)Nc4cc(C(C)(C)C)cc(N(CCO)S(C)(=O)=O)c4OC)c4ccccc34)ccn2)ccc1C(=O)NCCN1CC[S+]([O-])CC1 [Example 48, 4-((4-((4-(3-(5-(tert-Butyl)-3-(N-(2-hydroxyethyl)methylsulfonamido)-2-methoxyphenyl)-ureido)naphthalen-1-yl)oxy)pyridin-2-yl)amino)-2-methoxy-N-(2-(1-oxidothiomorpholino)-ethyl)benzamide]	89.0	63.8	54.2
